The GI50 is the concentration that inhibits growth by half.

Here are results for four compounds from ChEMBL document CHEMBL1201862, “PubChem BioAssay data set” (2004).

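These data come from cells grown in 96-well plates and exposed to compound for 48 hours at five concentrations. The concentration for 50% growth inhibition is given as GI50.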 The source made the active and inactive calls. No stated cut-off is given here; in the data, active = GI50 up to about 1.1 µM and inactive = higher. A value given as a limit tells only on which side of the number the result lay.

What all share (test): DTP human tumour cell line panel, 48 h
In assay [1] the test system is IGROV-1.
Assay [2] deals with HCT-15.
The test system of assay [3] is U-251.
The test system of assay [4] is Hs-578T.
Assay [5] concerns SF-539.
Assay [6] has as its system UO-31.
For assay [7], the system named is SNB-75.
The subject of assay [8] is CAKI-1.
Assay [9] has as its system KM12.
The test system of assay [10] is SF-295.
In assay [11] the test system is SK-MEL-2.
Assay [12] relates to BT-549.
For assay [13], the system named is T47D.
Assay [14] relates to 786-0.
The subject of assay [15] is SW-620.
Assay [16] relates to NCI-H226.
Assay [17] has as its system SK-MEL-5.
The subject of assay [18] is LOX IMVI.
Assay [19] relates to UACC-62.
Assay [20] concerns COLO 205.

On to `CC1(C)C2CCC1(C)[C@H](n1c(=O)n([C@@H]3CC4CCC3(C)C4(C)C)c(=O)n([C@@H]3CC4CCC3(C)C4(C)C)c1=O)C2`, for which the GI50 in assay [1] was 65.6 µM (inactive); in assay [2], 49.2 µM; in assay [3], 25.3 µM (inactive); in assay [4], 37.9 µM (inactive); in assay [5], 17.8 µM (inactive); in assay [6], 38.7 µM (inactive). Moreover, the GI50 is 16.2 µM (inactive) in assay [7]; 66.7 µM (inactive) in [8]; 58.1 µM (inactive) in assay [9]; 29.6 µM (inactive) in assay [10]; 22.3 µM (inactive) in [11]; 67.1 µM (inactive) in assay [12]. Further, the GI50 in assay [13] is 42.6 µM (inactive); in assay [14], 28 µM (inactive); in assay [15], 98.2 µM (inactive); in assay [16], 27.7 µM (inactive); in assay [17], 34 µM (inactive); in [18], > 100 µM (inactive).

As for `COc1ccc(N2C(=O)C3c4[nH]c5ccc(F)cc5c4C4CCC(c5ccccc5)CC4C3C2=O)cc1` (stereo not given), the GI50 in assay [1] was 20.1 µM (inactive); in assay [2] it was 19.7 µM; in assay [3], 9.98 µM (inactive); in assay [4], 10.8 µM (inactive); in assay [6] it was 21.4 µM (inactive); in assay [7], 12.5 µM (inactive). Moreover, the GI50 in [8] is 19.8 µM (inactive); in [9], 20.7 µM (inactive); in assay [10], 31 µM (inactive); in [19] it was 11.9 µM (inactive); in assay [20], 31.1 µM (inactive); in assay [11] it was 21.8 µM (inactive). In addition, the GI50 was 17.3 µM (inactive) in [12]; 39.3 µM (inactive) in assay [13]; 3.56 µM (inactive) in assay [14]; 8.38 µM (inactive) in assay [15]; 54.8 µM (inactive) in assay [16]; 21.6 µM (inactive) in assay [17]. The GI50 in assay [18] is 36.8 µM (inactive).

Regarding `COc1ccc2[nH]c3c(c2c1)CCc1c(OC)cccc1-3`, the GI50 was > 100 µM (inactive) in [1]; more than 100 µM in [2]; 28.8 µM (inactive) in assay [3]; 39.7 µM (inactive) in assay [4]; > 100 µM (inactive) in assay [6]; 70 µM (inactive) in assay [7]. Besides, the GI50 in assay [8], in [9], in assay [10], in [19], in assay [20] and in assay [11] was > 100 µM (inactive) throughout. The GI50 in assay [12] was > 100 µM (inactive); in assay [13] it was 14.5 µM (inactive); in assay [14], > 100 µM (inactive); in assay [15], > 100 µM (inactive); in [16] it was > 100 µM (inactive); in assay [17], > 100 µM (inactive). For the same compound, the GI50 in assay [18] is > 100 µM (inactive).

For the compound `CO/N=C(\C(=O)N(C)n1cnnc1)c1csc(NC(c2ccccc2)(c2ccccc2)c2ccccc2)n1`, the GI50 in [1] was > 10 µM (inactive); in assay [2] it was more than 10 µM; in assay [3], > 10 µM (inactive); in assay [4], > 10 µM (inactive); in [5], > 10 µM (inactive); in [6] it was > 10 µM (inactive). In addition, the GI50 in assay [7], in [8], in [9], in assay [10], in assay [20] and in assay [11] was > 10 µM (inactive) throughout. The GI50 in assay [12], in [13], in assay [14], in assay [15], in [16] and in assay [17] was > 10 µM (inactive) each time. In addition, the GI50 in assay [18] is > 10 µM (inactive).
